Reference: US10550073B2, “Benzamide derivative” (CSPC ZHONGQI PHARMACEUTICAL TECHNOLOGY (SHIJIAZHUANG) CO., …, priority 2015, dated 2020)

Tests used:
TNF-α = assay: In vitro cell experiment: LPS-stimulated TNF-α release in THP-1 cells (ELISA); assay type: cell-based; details: Homo sapiens; TNF-α in supernatant of THP-1 cells, compound 2 h then LPS 10 μg/ml 2 h
Description: I. In Vitro Cell Experiment
Cells: human monocytic leukemia THP-1 cells (obtained from the Shanghai Cell Bank of Chinese Academy of Sciences).
Lipopolysaccharides: from Escherichia coli O55: B5, L2880 (Sigma).
Kit: Human TNF-α Elisa MAX Deluxe Set, 430206 (Biolegend)

p38a = p38a (Homo sapiens (Human), UniProt Q16539); assay: Assay of p38 kinase activity (fluorescence, peptide substrate); assay type: biochemical; details: 40 nM p38a, 100 μM ATP, 90 minutes
Experimental: II. Assay of p38 Kinase Activity
Experimental Method: 40 nM p38a was added into a reaction buffer, which include 20 mM HEPES (4-hydroxyethylpiperazine ethanesulfonic acid), 5 mM MgCl2 and 1 mM DTT (dithiothreitol) at pH 7.4. 40 μM phosphorylated peptide substrate was added, followed by different concentrations of drugs and 100 μM ATP (adenosine triphosphate), and reacted for 90 minutes in dark. […] The IC50 values of the compounds were obtained according to the fluorescence values.

p38a, sequence (Q16539 whole entry): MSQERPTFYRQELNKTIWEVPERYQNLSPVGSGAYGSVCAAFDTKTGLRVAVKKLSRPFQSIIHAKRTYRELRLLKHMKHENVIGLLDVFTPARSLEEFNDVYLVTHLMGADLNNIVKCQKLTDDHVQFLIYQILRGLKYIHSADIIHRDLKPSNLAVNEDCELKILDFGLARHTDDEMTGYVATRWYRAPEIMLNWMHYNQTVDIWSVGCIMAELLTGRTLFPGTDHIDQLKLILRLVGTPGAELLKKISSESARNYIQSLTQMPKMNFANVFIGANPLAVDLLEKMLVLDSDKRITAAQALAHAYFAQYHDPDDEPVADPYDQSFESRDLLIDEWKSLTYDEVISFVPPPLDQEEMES

SMILES | IC50 (TNF-α) [nM] | IC50 (p38a) [nM]
CCCCCNC(=O)c1ccc(-c2cc(C(=O)NC3CC3)cc(F)c2C)nc1 [Example 9, 6-(5-(cyclopropylcarbamoyl)-3-fluoro-2-methylphenyl)-N-pentylnicotinamide] | 5 to 10 | 5 to 10
Cc1c(F)cc(C(=O)NC2CC2)cc1-c1ccc(C(=O)NC2CCCCC2)cn1 [Example 10, N-cyclohexyl-6-(5-(cyclopropylcarbamoyl)-3-fluoro-2-methylphenyl) nicotinamide] | < 5 | –
Cc1c(F)cc(C(=O)NC2CC2)cc1-c1ccc(C(=O)N2CCCCCC2)cn1 [Example 14] | 5 to 10 | –
Cc1c(F)cc(C(=O)NC2CC2)cc1-c1ccc(C(=O)NCC(C)C)nc1 [Example 15, 5-(5-(cyclopropylcarbamoyl)-3-fluoro-2-methylphenyl)-N-isobutylpyridin-2-formamide] | < 5 | < 5
Cc1c(F)cc(C(=O)NC2CC2)cc1-c1ccc(C(=O)NC2CCCC2)nc1 [Example 17, N-cyclopentyl-5-(5-(cyclopropylcarbamoyl)-3-fluoro-2-methylphenyl)pyridin-2-foramamide] | < 5 | –
CCCN(CCC)C(=O)c1ccc(-c2cc(C(=O)NC3CC3)cc(F)c2C)cc1 [Example 20, N^3-cyclopropyl-5-fluoro-6-methyl-N^4′,N^4′-dipropyl-[1,1′-biphenyl]-3,4′-dicarboxamide] | 5 to 10 | –
Cc1c(F)cc(C(=O)NC2CC2)cc1-c1ccc(C(=O)NC2CCCC2)cc1 [Example 22] | < 5 | –
Cc1c(F)cc(C(=O)NC2CC2)cc1-c1ccc(C(=O)N(C)C2CCCC2)cc1 [Example 23, N^4′-cyclopentyl-N^3-cyclopropyl-5-fluoro-N^4′,6-dimethyl-[1,1′-biphenyl]-3,4′-dicarboxamide] | 5 to 10 | –
Cc1c(F)cc(C(=O)NC2CC2)cc1-c1ccc(C(=O)NC2CCCCC2)cc1 [Example 24, N^4′-cyclohexyl-N^3-cyclopropyl-5-fluoro-6-methyl-[1,1′-biphenyl]-3,4′-dicarboxamide] | 5 to 10 | –
Cc1c(F)cc(C(=O)NC2CC2)cc1-c1ccc(C(=O)N(C)C2CCCCC2)cc1 [Example 25, N^4′-cyclohexyl-N^3-cyclopropyl-5-fluoro-N^4′,6-dimethyl-[1,1′-biphenyl]-3,4′-dicarboxamide] | < 5 | 5 to 10
Cc1c(F)cc(C(=O)NC2CC2)cc1-c1ccc(C(=O)N2CCC(C)CC2)cc1 [Example 26, N-cyclopropyl-5-fluoro-6-methyl-4′-(4-methylpiperidin-1-carbonyl)-[1,1′-biphenyl]-3-carboxamide] | 5 to 10 | –
Cc1c(F)cc(C(=O)NC2CC2)cc1-c1ccc(C(=O)N2CCCCCC2)cc1 [Example 28, 4′-(azepane-1-carbonyl)-N-cyclopropyl-5-fluoro-6-methyl-[1,1′-biphenyl]-3-carboxamide] | 5 to 10 | –
Cc1c(F)cc(C(=O)NC2CC2)cc1-c1ccc(C(=O)NCC(C)C)c(F)c1 [Example 30, N^3-cyclopropyl-3′,5-difluoro-N^4′-isobutyl-6-methyl-[1,1′-biphenyl]-3,4′-dicarboxamide] | < 5 | < 5
Cc1c(F)cc(C(=O)NC2CC2)cc1-c1ccc(C(=O)N(C)CC(C)C)c(F)c1 [Example 31, N^3-cyclopropyl-3′,5-difluoro-N^4′-isobutyl-N^4′,6-dimethyl-[1,1′-biphenyl]-3,4′-dicarboxamide] | < 5 | < 5
Cc1c(F)cc(C(=O)NC2CC2)cc1-c1ccc(C(=O)NC2CCCC2)c(F)c1 [Example 32, N^4′-cyclopentyl-N^3-cyclopropyl-3′,5-difluoro-6-methyl-[1,1′-biphenyl]-3,4′-dicarboxamide] | < 5 | < 5
Cc1c(F)cc(C(=O)NC2CC2)cc1-c1ccc(C(=O)N(C)C2CCCC2)c(F)c1 [Example 33, N^4′-cyclopentyl-N^3-cyclopropyl-3′,5-difluoro-N^4′,6-dimethyl-[1,1′-biphenyl]-3,4′-dicarboxamide] | < 5 | –
CCC(C)(C)NC(=O)c1ccc(-c2cc(C(=O)NC3CC3)cc(F)c2C)cc1N [Example 41, 3′-amino-N^3-cyclopropyl-5-fluoro-6-methyl-N^4′-(tertpentyl)-[1,1′-biphenyl]-3,4′-dicarboxamide] | < 5 | –
Cc1c(F)cc(C(=O)NC2CC2)cc1-c1ccc(NC(=O)C2CCCCC2)c(F)c1 [Example 47, 4′-(cyclohexanecarboxamido)-N-cyclopropyl-3′,5-difluoro-6-methyl-[1,1′-biphenyl]-3-carboxamide] | 5 to 10 | –
Cc1cc(-c2cc(C(=O)NC3CC3)cc(F)c2C)ccc1NC(=O)NC1CCCC1 [Example 50, 4′-(3-cyclopentylureido)-N-cyclopropyl-5-fluoro-3′,6-dimethyl-[1,1′-biphenyl]-3-carboxamide] | < 5 | –
Cc1c(F)cc(C(=O)NC2CC2)cc1-c1ccc2nc(NCC(C)C)sc2c1 [Example 51, N-cyclopropyl-3-fluoro-5-(2-(isobutylamino)benzo[d]thiazol-6-yl)-4-methylbenzamide] | < 5 | 5 to 10
CCCCNc1nc2ccc(-c3cc(C(=O)NC4CC4)cc(F)c3C)cc2s1 [Example 52, 3-(2-(butylamino)benzo [d]thiazol-6-yl)-N-cyclopropyl-5-fluoro-4-methylbenzamide] | 5 to 10 | 5 to 10
Cc1c(F)cc(C(=O)NC2CC2)cc1-c1ccc2nc(NC3CCCC3)sc2c1 [Example 54, 3-(2-(cyclopentylamino)benzo[d]thiazol-6-yl)-N-cyclopropyl-5-fluoro-4-methylbenzamide] | 5 to 10 | –
Cc1c(F)cc(C(=O)NC2CC2)cc1-c1ccc(C(=O)N2CCCCC2)s1 [Example 55, N-cyclopropyl-3-fluoro-4-methyl-5-(5-(piperidin-1-carbonyl)thiophen-2-yl) benzamide] | 5 to 10 | 5 to 10
Cc1c(F)cc(C(=O)NC2CC2)cc1-c1ccc(C(=O)N2CCC(C)CC2)s1 [Example 56, N-cyclopropyl-3-fluoro-4-methyl-5-(5-(4-methylpiperidin-1-carbonyl)thiophen-2-yl)benzamide] | 5 to 10 | 5 to 10
Cc1c(F)cc(C(=O)NC2CC2)cc1-c1ccc(C(=O)NCCC(C)C)nn1 [Example 60, 6-(5-(cyclopropylcarbamoyl)-3-fluoro-2-methylphenyl)-N-isopentylpyridazin-3-carboxamide] | 5 to 10 | < 5
Cc1c(F)cc(C(=O)NC2CC2)cc1-c1ccc(C(=O)N(C)C2CCCCC2)nn1 [Example 62] | 5 to 10 | < 5
C=CCNC(=O)c1cc(F)c(C)c(-c2ccc(C(=O)NC3CCCC3)nn2)c1 [Example 79, 6-(5-(allylcarbamoyl)-3-fluoro-2-methylphenyl)-N-cyclopentylpyridazin-3-carboxamide] | 5 to 10 | < 5
C=CCNC(=O)c1cc(F)c(C)c(-c2ccc(C(=O)NC3CCCCC3)nn2)c1 [Example 80, 6-(5-(allylcarbamoyl)-3-fluoro-2-methylphenyl)-N-cyclohexylpyridazin-3-carboxamide] | 5 to 10 | < 5
C=CCNC(=O)c1cc(F)c(C)c(-c2ccc(C(=O)NCC(C)(C)C)cn2)c1 [Example 81, 6-(5-(allylcarbamoyl)-3-fluoro-2-methylphenyl)-N-neopentylnicotinamide] | 5 to 10 | –
